Experimental data: ChEMBL document CHEMBL3885881, “DrugMatrix”

Species: Rattus norvegicus
Assay: DrugMatrix - Regimen: Daily Repeat
Assay type: toxicity, organism-based, Sprague-Dawley
Design: regimen Daily Repeat, gender Male, age 6-8 weeks
Settings: in vivo, po, route oral GAVAGE, […]; for ABSOLUTE BASOPHIL / ABSOLUTE EOSINOPHIL / ABSOLUTE LYMPHOCYTE / ABSOLUTE MONOCYTE / ABSOLUTE SEGMENTED NEUTROPHIL / BASOPHIL / EOSINOPHIL / ERYTHROCYTE COUNT / HEMATOCRIT / HEMOGLOBIN / LEUKOCYTE COUNT / LYMPHOCYTE / MEAN CORPUSCULAR HEMOGLOBIN / MEAN CORPUSCULAR HEMOGLOBIN CONCENTRATION / MEAN CORPUSCULAR VOLUME / MONOCYTE / NEUTROPHIL / NUCLEATED RED BLOOD CELLS / PLATELET COUNT: tissue Blood; for ALANINE AMINOTRANSFERASE / ALBUMIN / ALKALINE PHOSPHATASE / ASPARTATE AMINOTRANSFERASE / BLOOD UREA NITROGEN / CARBON DIOXIDE / CHLORIDE / CHOLESTEROL / CREATINE PHOSPHOKINASE / CREATININE / GLUCOSE / LACTATE DEHYDROGENASE / LIPASE / PHOSPHORUS / POTASSIUM / SODIUM / TOTAL BILIRUBIN / TOTAL PROTEIN / URIC ACID: tissue Plasma
[1] = 0.05 mg/kg, 120 h, dose level Low, time 5 day
[2] = 7 mg/kg, 72 h, dose level High, time 3 day
[3] = 7 mg/kg, 120 h, dose level High, time 5 day

COCc1c(C(C)C)nc(C(C)C)c(/C=C/[C@@H](O)C[C@@H](O)CC(=O)O)c1-c1ccc(F)cc1 [CERIVASTATIN]
ABSOLUTE BASOPHIL [1]: 0 CELLS/uL
ABSOLUTE EOSINOPHIL [1]: 39 CELLS/uL
ABSOLUTE LYMPHOCYTE [1]: 10187.67 CELLS/uL
ABSOLUTE MONOCYTE [1]: 164.67 CELLS/uL
ABSOLUTE SEGMENTED NEUTROPHIL [1]: 875.33 CELLS/uL
BASOPHIL [1]: 0%
EOSINOPHIL [1]: 0.33%
ERYTHROCYTE COUNT [1]: 5.9 x10E6/uL
HEMATOCRIT [1]: 36.4%
HEMOGLOBIN [1]: 13.87 G/DL
LEUKOCYTE COUNT [1]: 11.27 x10E3/uL
LYMPHOCYTE [1]: 90.33%
MEAN CORPUSCULAR HEMOGLOBIN [1]: 23.53 pg
MEAN CORPUSCULAR HEMOGLOBIN CONCENTRATION [1]: 38.1 G/DL
MEAN CORPUSCULAR VOLUME [1]: 61.73 fL
MONOCYTE [1]: 1.33%
NEUTROPHIL [1]: 8%
NUCLEATED RED BLOOD CELLS [1]: 0 /100WBC
PLATELET COUNT [1]: 1545 x10E3/uL
ALANINE AMINOTRANSFERASE [1]: 66.33 u/L
ALBUMIN [1]: 4.1 G/DL
ALKALINE PHOSPHATASE [1]: 440.67 u/L
ASPARTATE AMINOTRANSFERASE [1]: 90 u/L
BLOOD UREA NITROGEN [1]: 14.67 mg/dL
CARBON DIOXIDE [1]: 32 mmol/L
CHLORIDE [1]: 101 MEQ/L
CHOLESTEROL [1]: 63.67 mg/dL
CREATINE PHOSPHOKINASE [1]: 453 u/L
CREATININE [1]: 0.19 mg/dL
GLUCOSE [1]: 143.33 mg/dL
LACTATE DEHYDROGENASE [1]: 112.33 u/L
LIPASE [1]: 11.33 u/L
PHOSPHORUS [1]: 10.8 mg/dL
POTASSIUM [1]: 6.11 MEQ/L
SODIUM [1]: 144.4 MEQ/L
TOTAL BILIRUBIN [1]: 0.17 mg/dL
TOTAL PROTEIN [1]: 5.87 G/DL
URIC ACID [1]: 1.37 mg/dL
ABSOLUTE BASOPHIL [2]: 0 CELLS/uL
ABSOLUTE EOSINOPHIL [2]: 0 CELLS/uL
ABSOLUTE LYMPHOCYTE [2]: 7320 CELLS/uL
ABSOLUTE MONOCYTE [2]: 110 CELLS/uL
ABSOLUTE SEGMENTED NEUTROPHIL [2]: 1470 CELLS/uL
BASOPHIL [2]: 0%
EOSINOPHIL [2]: 0%
ERYTHROCYTE COUNT [2]: 6.07 x10E6/uL
HEMATOCRIT [2]: 37.7%
HEMOGLOBIN [2]: 14.3 G/DL
LEUKOCYTE COUNT [2]: 8.9 x10E3/uL
LYMPHOCYTE [2]: 81.67%
MEAN CORPUSCULAR HEMOGLOBIN [2]: 23.6 pg
MEAN CORPUSCULAR HEMOGLOBIN CONCENTRATION [2]: 37.93 G/DL
MEAN CORPUSCULAR VOLUME [2]: 62.2 fL
MONOCYTE [2]: 1.33%
NEUTROPHIL [2]: 17%
NUCLEATED RED BLOOD CELLS [2]: 0 /100WBC
PLATELET COUNT [2]: 1276.33 x10E3/uL
ALANINE AMINOTRANSFERASE [2]: 401.33 u/L
ALBUMIN [2]: 4.23 G/DL
ALKALINE PHOSPHATASE [2]: 440.67 u/L
ASPARTATE AMINOTRANSFERASE [2]: 730.67 u/L
BLOOD UREA NITROGEN [2]: 14.33 mg/dL
CARBON DIOXIDE [2]: 34.67 mmol/L
CHLORIDE [2]: 99.33 MEQ/L
CHOLESTEROL [2]: 65.33 mg/dL
CREATINE PHOSPHOKINASE [2]: 536.67 u/L
CREATININE [2]: 0.21 mg/dL
GLUCOSE [2]: 138.33 mg/dL
LACTATE DEHYDROGENASE [2]: 823 u/L
LIPASE [2]: 11.33 u/L
PHOSPHORUS [2]: 10.17 mg/dL
POTASSIUM [2]: 6.19 MEQ/L
SODIUM [2]: 145.1 MEQ/L
TOTAL BILIRUBIN [2]: 0.13 mg/dL
TOTAL PROTEIN [2]: 5.9 G/DL
URIC ACID [2]: 1.17 mg/dL
ABSOLUTE BASOPHIL [3]: 0 CELLS/uL
ABSOLUTE EOSINOPHIL [3]: 0 CELLS/uL
ABSOLUTE LYMPHOCYTE [3]: 5700.67 CELLS/uL
ABSOLUTE MONOCYTE [3]: 483.33 CELLS/uL
ABSOLUTE SEGMENTED NEUTROPHIL [3]: 1949.33 CELLS/uL
BASOPHIL [3]: 0%
EOSINOPHIL [3]: 0%
ERYTHROCYTE COUNT [3]: 6.32 x10E6/uL
HEMATOCRIT [3]: 41%
HEMOGLOBIN [3]: 15.23 G/DL
LEUKOCYTE COUNT [3]: 8.13 x10E3/uL
LYMPHOCYTE [3]: 68.33%
MEAN CORPUSCULAR HEMOGLOBIN [3]: 24.1 pg
MEAN CORPUSCULAR HEMOGLOBIN CONCENTRATION [3]: 37.17 G/DL
MEAN CORPUSCULAR VOLUME [3]: 64.93 fL
MONOCYTE [3]: 5.67%
NEUTROPHIL [3]: 26%
NUCLEATED RED BLOOD CELLS [3]: 0 /100WBC
PLATELET COUNT [3]: 1312.67 x10E3/uL
ALANINE AMINOTRANSFERASE [3]: 247.33 u/L
ALBUMIN [3]: 3.9 G/DL
ALKALINE PHOSPHATASE [3]: 548.33 u/L
ASPARTATE AMINOTRANSFERASE [3]: 624.67 u/L
BLOOD UREA NITROGEN [3]: 19 mg/dL
CARBON DIOXIDE [3]: 35.67 mmol/L
CHLORIDE [3]: 93 MEQ/L
CHOLESTEROL [3]: 85 mg/dL
CREATINE PHOSPHOKINASE [3]: 915.67 u/L
CREATININE [3]: 0.27 mg/dL
GLUCOSE [3]: 124.33 mg/dL
LACTATE DEHYDROGENASE [3]: 295 u/L
LIPASE [3]: 13 u/L
PHOSPHORUS [3]: 8 mg/dL
POTASSIUM [3]: 5.51 MEQ/L
SODIUM [3]: 142.73 MEQ/L
TOTAL BILIRUBIN [3]: 0.13 mg/dL
TOTAL PROTEIN [3]: 6.1 G/DL
URIC ACID [3]: 0.87 mg/dL
